Test [1] concerns the target T1, apoA4 (Homo sapiens, UniProt P06727).
T1 sequence (P06727 21-396): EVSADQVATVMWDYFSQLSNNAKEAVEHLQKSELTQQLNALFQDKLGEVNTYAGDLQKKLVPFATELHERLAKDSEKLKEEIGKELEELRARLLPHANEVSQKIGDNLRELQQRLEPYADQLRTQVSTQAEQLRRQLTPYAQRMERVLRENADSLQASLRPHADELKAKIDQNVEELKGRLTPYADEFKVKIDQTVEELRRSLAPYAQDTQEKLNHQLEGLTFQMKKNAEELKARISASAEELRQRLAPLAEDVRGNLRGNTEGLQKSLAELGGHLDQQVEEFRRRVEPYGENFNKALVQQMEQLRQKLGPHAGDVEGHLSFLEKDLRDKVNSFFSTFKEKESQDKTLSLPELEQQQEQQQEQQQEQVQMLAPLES
Put plainly: DMPC multilamellar liposome clearance, absorbance at […] nm. In kind it is binding. The conditions noted are these: lipid-free protein; liposomes; protein:DMPC 2:1 mol/mol as printed; 24.5°C.

Test [2] concerns the target apoA-I (Homo sapiens, UniProt P02647). Described as above. Format: binding. Conditions: lipid-free protein; liposomes; protein:DMPC 2:1 mol/mol as printed; 24.5°C.

Consider one compound from PMC4469915 (Molecules and Cells, 2015).

Sequence of apoA-I (P02647 25-267): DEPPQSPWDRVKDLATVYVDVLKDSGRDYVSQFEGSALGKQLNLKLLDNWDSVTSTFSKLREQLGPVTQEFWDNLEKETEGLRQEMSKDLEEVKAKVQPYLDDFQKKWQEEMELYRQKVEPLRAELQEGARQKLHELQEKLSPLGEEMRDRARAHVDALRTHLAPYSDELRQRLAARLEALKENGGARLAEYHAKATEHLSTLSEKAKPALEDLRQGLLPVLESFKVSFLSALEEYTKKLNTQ

Take `CCCCCCCCCCCCCC(=O)OC[C@H](COP(=O)([O-])OCC[N+](C)(C)C)OC(=O)CCCCCCCCCCCCC` [DMPC]: the values for the T1/2 in test [1] and in test [2] were 62 ± 10 min and 11 ± 1 min, respectively.
